Test results reported in patent US7235584B2, “Non-psychotropic cannabinoids” (Pharmos Corporation, priority 2000, dated 2007).

Key:
NMDA receptor = assay: [3H]MK-801 displacement radioligand binding, rat forebrain membranes
Description: The identification of possible recognition sites for PRS-211 analogs was carried out by measuring the ability of these PRS-211 analogs to inhibit the binding of MK-801 to rat forebrain membranes.
Brains were removed from Sprague-Dawley rats no more than 5 min after decapitation. Membrane preparations were isolated according to a procedure described previously (Eshhar et al., Brain Res. 476:57, 1989). Prior to radioligand binding measurements, endogenous glutamate present in membranes was removed from the preparation by subjecting the membranes to 3–4 successive washings in 10 mM Tris HCl pH 7.2, performed at 4° C.
The specific binding of the new analogs to NMDA receptors was determined by their ability to displace [^3H]MK-801 from NMDA receptor in rat forebrain preparations. Specifically, rat-forebrain membranes (0.1 mg) were incubated for 2 hours at room temperature with 10 nM of tritiated MK-801 and with the PRS-211 compounds at 3 doses each. Non-specific binding was determined by the use of 0.1 mM MK-801. Following the incubation, bound radioligand was separated from unbound by filtration through GF/B filters. The filters were counted in a β-counter and log of analog concentrations versus % of [^3H]MK-801 specific binding was plotted. The IC50 was calculated from this plot.
Binding of [^3H]MK-801 to membranes was carried out in the presence of 30 μM glycine and 10 μM L-glutamate. Membranes (250 μg protein) were resuspended in 50 mM tris-acetate pH 7.4 buffer and incubated with 10 nM [^3H]MK-801, either alone or in the presence of PRS-211 compounds at 0.1–100 μM concentrations for three hours at room temperature (RT). Reaction buffers used in the different radioligand binding studies contained 10% of an ethanol/Emulphor 620/deionized water mixture. The ratio (by volume) of the respective components in the mixture was 20/3/57. This mixture is required for solubilizing PRS-211 compounds at concentrations above 30 μM. Reaction volume was 1 ml. Non-specific [^3H]MK-801 binding was determined in the presence of 100 μM unlabeled MK-801.
Concentration dependence of certain PRS-211 analogs on inhibition of [^3H]MK-801 binding is illustrated in FIG. 1.

PGE2 = assay: Inhibition of prostaglandin (PGE2) synthesis in LPS-stimulated macrophage cell cultures; type: cell-based
Description: The inhibitory effect of the new derivatives of Dexanabinol on prostaglandin synthesis is evaluated in macrophage cell cultures following LPS exposure to induce the inflammatory response. These assays are an indication of the anti-inflammatory activity of the individual analogs.
The inhibitory effect of Dexanabinol new analogs on prostaglandin synthesis was evaluated in macrophage cell cultures. Macrophages were seeded in a 24 well NUNC plates, and incubated with DMEM medium for 24 hours to allow attachment to plastic. The wells were vacuumed and a different new analog is added for 1 hour. Treatments are done in triplicates. Following, LPS was added for a duration of 3–24 extra hours, to induce the inflammatory response. The supernatants were collected and analyzed for PGE2 by enzyme immunoassay technique Biotrak kit (Amersham Pharmacia Biotech).

[1] = test system: rat model of myocardial ischemia; assay: Rat model of myocardial ischemia and reperfusion; type: in vivo, Sprague-Dawley rats; settings: given 15 minutes before occlusion; 45 minutes occlusion, 4 hours reperfusion
Description: A rat model of ischemia and reperfusion was used to test the ability of compounds to reduce the volumes of infarction is considered a measure of their potential as cardioprotectors.
The following model of myocardial infarction and heart failure was used to test the ability of compounds to reduce the volumes of infarction is considered a measure of their potential as cardioprotectors.
The methods used are essentially as described in Leor and Kloner (Leor and Klonner, Am. J Cardiol. 75:1292–3 1995). The experiment was performed in a masked fashion. In brief, Sprague-Dawley rats were given either vehicle or PRS-211,095 15 minutes before occlusion. They were subjected to 45 minutes of coronary occlusion and 4 hours of reperfusion, after which the coronary artery was reoccluded and 0.25 ml of Unisperse™ dye was injected IV to determine area of risk (AR). The rats were euthanized and hearts were analyzed as to infarct size using a 1% solution of triphenylteuazolium chloride for 15 minutes at 37° C. The area of necrosis (AN) in each heart was expressed as a percentage of the area at risk. This was multiplied by the weight of each slice to obtain the mass of tissue at risk and necrosis.

AMPA binding = AMPA binding to rat forebrain membranes
kainic acid binding = assay: Kainic acid binding to rat forebrain membranes
[2] = test system: MPTP-mouse model of Parkinson's disease; assay: MPTP model of Parkinson's disease, TH-IR neurons in SNpc; type: in vivo, C57/BL mice; settings: seven days after MPTP
Description: MPTP-induced model of Parkinson's Disease (PD) in mice is used to evaluate the value of the novel PRS-211 compounds as therapeutic agents for PD.
The MPTP-mouse model of Parkinson's disease is used to test the efficacy of the compounds to prevent the onset of PD symptoms.
The protocol is based on Liberatore et al. (Liberatore, Jackson-Lewis, Vukosavic, Mandir, Vila , McAuliffe, Dawson, Dawson and Przedborski, Nature Medicine 5:1403–9, 1999).
The treatment groups are as follows: • Vehicle 5 ml/kg IP once just before MPTP administration. • Dexanabinol or analog 10 mg/kg IP once just before MPTP administration. • Dexanabinol or analog 20 mg/kg IP once just before MPTP administration. • Dexanabinol or analog 20 mg/kg IP once just before MPTP administration+additional dose 24 hours later.
Seven days after MPTP administration the mice were euthanized and their brains removed cut and stained using an antiserum to tyrosine hydroxylase (TH-IR), the rate limiting enzyme in monoamainergic neurons. Attention was focused on the Substantia nigra, pars compacta (SNpc), which are comprise of dompaminergic neurons that project to the striatum. It is these neurons that undergo degeneration in Parkinson's Disease. MPTP acts as a specific neurotoxin for these neurons, and the aim was to determine whether MPTP-induced nerve degeneration could be ameliorated by Dexanabinol at 10 (D-10), 20 (D-20) or 30 (D-30) mg/kg, or 2 injections of Dexanabinol at 20mg/kg (D-20×2) relative to vehicle alone (V).
The rescue effect of the various treatments was calculated by comparing the number of the TH-IR cells in each group relative to that in animals treated with MPTP alone, which was arbitrarily assigned a value of zero.

## CCCCCCC(C)(C)c1cc(O)c2c(c1)OC(C)(C)[C@H]1CC=C(Cn3cccn3)C[C@H]21 [211,220-000, (+)-(3S,4S)-6,6-Dimethyl-(1,1-dimethylheptyl)-1-hydroxy-9-(pyrazolomethyl)-6a,7,10,10a-tetrahydro-6H-dibenzo[b,d]pyran]
NMDA receptor
  NMDA receptor binding / affinity (in words): relatively high affinity
PGE2
  inhibition at 10 µM: 59%

## CCCCCCC(C)(C)c1cc(O)c2c(c1)OC(C)(C)C1CC=C(Cn3ccnc3)CC21.Cl (single isomer, unassigned; (+)) [211,095-000, (+)-(3S ,4S )-6,6-Dimethyl-(1,1-dimethylheptyl)-1-hydroxy-9-(imidazolomethyl)-6a,7,10,10a-tetrahydro-6H-dibenzo[b,d]pyran]
NMDA receptor
  NMDA receptor binding / affinity (in words): relatively high affinity

## CCCCCCC(C)(C)c1cc(O)c2c(c1)OC(C)(C)C1CC=C(CSc3ncc[nH]3)CC21 (single isomer, unassigned; (+)) [211,092-000]
NMDA receptor
  NMDA receptor binding / affinity (in words): low affinity
[1]
  infarct size (AN/AR, AN/LV), FIG. 13: clear decrease in infarct size

## CCCCCCC(C)(C)c1cc(O)c2c(c1)OC(C)(C)[C@H]1CC=C(CO)CC21 (stereo partly drawn) [211,007-000, 1,1 dimethyl heptyl-(3S,4S)-7-hydroxy-Δ^6-tetrahydrocannabinol]
NMDA receptor
  NMDA receptor binding / affinity (in words): competes with the binding of MK-801 to membranes
NMDA receptor; rat forebrain membranes, read-out: inhibition constant (KI) of [3H]MK-801 binding
  Ki: 11 ± 1.3 µM
NMDA receptor; rat forebrain membranes, read-out: mean IC50 of [3H]MK-801 binding (FIG. 2)
  IC50: 10 µM
AMPA binding
  inhibition of AMPA binding: unable to inhibit
Kainic acid binding
  inhibition of kainic acid binding: unable to inhibit
[2]; 10 mg/kg IP
  TH-IR SNpc (rescue effect relative to MPTP alone = 0): −7.85
[2]; 20 mg/kg IP
  TH-IR SNpc (rescue effect relative to MPTP alone = 0): 28.52
[2]; 30 mg/kg IP
  TH-IR SNpc (rescue effect relative to MPTP alone = 0): 22.73
[2]; 2 injections at 20 mg/kg
  TH-IR SNpc (rescue effect relative to MPTP alone = 0): 8.5
